What was measured:
FAAH [1] = assay: block of activity in brain microsomes of the different species tested
FAAH [2] = target: T1, FAAH (Homo sapiens, UniProt O00519); assay: biochemical
T1 sequence (O00519 1-579): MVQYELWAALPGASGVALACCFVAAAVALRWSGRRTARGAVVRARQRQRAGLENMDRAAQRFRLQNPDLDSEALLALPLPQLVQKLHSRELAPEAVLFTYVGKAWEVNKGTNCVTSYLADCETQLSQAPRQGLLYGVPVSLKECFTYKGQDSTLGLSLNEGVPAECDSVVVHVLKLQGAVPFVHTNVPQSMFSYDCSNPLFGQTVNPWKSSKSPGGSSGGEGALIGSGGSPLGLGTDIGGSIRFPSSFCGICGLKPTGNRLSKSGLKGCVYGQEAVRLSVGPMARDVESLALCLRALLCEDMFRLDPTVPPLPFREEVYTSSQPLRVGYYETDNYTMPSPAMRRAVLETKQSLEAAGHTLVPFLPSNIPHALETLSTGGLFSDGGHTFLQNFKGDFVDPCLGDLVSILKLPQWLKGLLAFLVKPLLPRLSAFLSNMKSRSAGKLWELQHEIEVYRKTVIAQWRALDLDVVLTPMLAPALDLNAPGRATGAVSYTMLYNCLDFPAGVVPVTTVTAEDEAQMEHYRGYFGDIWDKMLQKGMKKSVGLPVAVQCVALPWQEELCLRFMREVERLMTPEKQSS

human sEH = target: T2, human sEH (Homo sapiens, UniProt P34913); assay: recombinant human sEH inhibition, fluorescent-based substrate; assay type: biochemical
T2 sequence (P34913 1-555): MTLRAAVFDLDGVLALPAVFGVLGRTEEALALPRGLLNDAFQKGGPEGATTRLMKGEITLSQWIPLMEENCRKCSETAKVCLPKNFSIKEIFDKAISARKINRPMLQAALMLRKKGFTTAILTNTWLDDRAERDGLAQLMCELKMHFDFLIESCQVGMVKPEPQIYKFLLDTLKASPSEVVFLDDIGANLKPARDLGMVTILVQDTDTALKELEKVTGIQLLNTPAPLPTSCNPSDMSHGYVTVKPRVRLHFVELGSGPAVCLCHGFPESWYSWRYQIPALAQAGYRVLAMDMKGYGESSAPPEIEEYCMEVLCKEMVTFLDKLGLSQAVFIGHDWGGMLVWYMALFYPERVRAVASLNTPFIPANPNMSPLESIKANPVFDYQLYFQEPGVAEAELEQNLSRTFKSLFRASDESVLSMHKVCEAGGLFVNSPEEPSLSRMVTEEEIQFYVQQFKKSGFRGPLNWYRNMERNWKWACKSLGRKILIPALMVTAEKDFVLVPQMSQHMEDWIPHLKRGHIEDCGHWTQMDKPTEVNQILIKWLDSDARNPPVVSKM

FAAH [3] = target: T1, FAAH; conditions: pre-incubated with FAAH at various time intervals, [S]final = 5 µM

Row | SMILES | activity blocked in the microsomes (FAAH [1]) [%] | IC50 (FAAH [2]) [nM] | IC50 (human sEH) [nM] | change of FAAH potency with pre-incubation time (in words) (FAAH [3])
1 | O=C(Nc1cccnc1)N1CCC(Cc2cccc(Oc3ccc(C(F)(F)F)cn3)c2)CC1 [PF-3845, N-(pyridin-3-yl)-4-(3-((5-(trifluoromethyl)pyridin-2-yl)oxy)benzyl)piperidine-1-carboxamide] | > 80 | 0.6 | > 10000 | –
2 | NC(=O)c1cccc(-c2cccc(OC(=O)NC3CCCCC3)c2)c1 [URB597, 3'-carbamoyl-[1-1'-biphenyl]-3-yl cyclohexylcarbamate] | – | – | – | time dependent
